These results are taken from US5811391A, “Cyclic CS-1 peptidomimetics, compositions and methods of using same” (Cytel Corporation, priority 1995, dated 1998).

The structures appear in SMILES notation. pIC50: −log10 of the molar value. Positions of bridges follow the written chain, without caps; N, C: chain ends. Non-standard residues stand in square brackets, D forms with d. Residues, ends and D or L forms follow the SMILES beside them. *: point of attachment. Pen = CC(C)(S)[C@H](N)C(=O)O; PhAc = O=C(Cc1ccccc1)*

The assay has as its target VLA-4 (Homo sapiens, UniProt P05556+P13612). The assay is described as follows: In vitro binding assay: 51Cr-labeled Jurkat cells to solid phase-bound CS-1 peptide (SEQ ID NO:5). The note with it: for Relative Potency: CS-1; for Potency in inhibiting Jurkat cell binding to CS-1 relative to standard 10-mer of SEQ ID NO:6: times/fold more potent than SEQ ID NO:6. The format is cell-based. Further details: inflammatory cells that contain the VLA-4 receptor [Jurkat cells; host or cells: Jurkat cells (human T lymphoblastic line). Here is the method:
Binding inhibition is measured here as a concentration of peptide that inhibits one-half the binding between a standard number of Jurkat cells and a standard amount of CS-1 peptide bound to the surface of a microtiter plate well. Those concentrations are conveniently expressed as IC50 values, smaller numbers indicating a lower concentration required to inhibit 50 percent binding and therefore greater potency. Further specifics of this assay are provided hereinafter.
Jurkat cells (ATCC TIB 152), a human T lymphoblastic line, labeled with ^51 chromium were used to assay in vitro binding inhibition provided by various peptides discussed herein.
The plates were prepared as follows: The 25-mer CS-1 peptide (SEQ ID NO:5) dissolved at 0.5-1 μg/ml in a buffer of 0.1M NaHCO3 at pH 9.5 that also contained 10 μg/ml of bovine serum albumin (BSA) or a conjugate of the CS-1 peptide linked to ovalbumin (CS-1-OVA) dissolved at 1-2.5 μg/ml in the same buffer was used as the substrate. Each well of the microtiter plates was coated with 50 μl of substrate or buffer alone for controls. The wells were permitted to dry out completely and were then rinsed twice with PBS at pH 7.4. Non-specific binding sites of each well were then blocked using 200 μl per well of RPMI/1 percent BSA for two hours at room temperature. Both solid phase-affixed substrates provided similar results.
Jurkat cells (3-5×10^6 cells) were placed into a 15 ml FALCON™ round-bottom tube with a cap. The tube was centrifuged, and the extra medium was then removed.
Two hundred microliters of a ^51 Cr labeling solution were added to the centrifuged cells and maintained in contact with the cells for 90-120 minutes in a warm room. This procedure typically provides about 50,000-100,000 cpm/well with about 80-100 percent cell viability. Longer contact times provide a greater amount of labeling but lower cell viability.
The labeled cells were washed with (i) complete medium, (ii) 1mM EDTA/PBS and then (iii) RPM1/1 percent BSA free of serum components. The cells were centrifuged after each washing. The cells were finally resuspended in serum-free RPMI/1 percent BSA at a concentration of 1×10^6 viable cells/ml, which provides a concentration that is diluted by one-half in the assay.
Cyclic inhibitor peptides were prepared as stock solutions at 20 mg/ml in DMSO in 1.5 ml cryogenic screwcap vials, and were stored at -70° C. Using FLOW™ round-bottom or V-bottom microtiter plates, the inhibitor peptides were prepared at twice the assay concentration in RPMI/1 percent BSA at 60 μl/well.
Four initial dilutions were typically used.
The ^51 Cr-labeled cells (1×10^6 cells at 60 μl/well) were then admixed with the diluted cyclic peptide solutions. The admixtures were maintained at room temperature (about 22° C.) for 30 minutes.
One hundred microliters of each inhibitor peptide/cell admixture were transferred to the substrate-coated wells. This was done in triplicate for each dilution. The resulting plates were incubated for 30 minutes at 37° C. and then washed gently three times with RPMI/1 percent BSA at 200 μl/well. Binding was observed microscopically, particularly after the second wash.
The bound cells were then lysed by the addition of a 0.5 percent solution of sodium dodecylsulfate in water at 100 μl/well. The resulting solutions were then processed for counting and calculation of IC50 values following usual procedures. Appropriate positive and negative controls were used with each plate so that the results of separate assays could be normalized and compared.
The potency data of Table 1 and Table 2 are so normalized. The absolute IC50 value for the peptide of SEQ ID NO:7 is 0.3 μM.

Where [1] appears, read: Table 2, normalized IC50 potency relative to standard peptide SEQ ID NO:6, Jurkat cells.
Where [2] appears, read: Table 1, normalized IC50 potency relative to standard peptide SEQ ID NO:6 (=1), Jurkat cells.

VLA-4, sequence (P13612 34-1032): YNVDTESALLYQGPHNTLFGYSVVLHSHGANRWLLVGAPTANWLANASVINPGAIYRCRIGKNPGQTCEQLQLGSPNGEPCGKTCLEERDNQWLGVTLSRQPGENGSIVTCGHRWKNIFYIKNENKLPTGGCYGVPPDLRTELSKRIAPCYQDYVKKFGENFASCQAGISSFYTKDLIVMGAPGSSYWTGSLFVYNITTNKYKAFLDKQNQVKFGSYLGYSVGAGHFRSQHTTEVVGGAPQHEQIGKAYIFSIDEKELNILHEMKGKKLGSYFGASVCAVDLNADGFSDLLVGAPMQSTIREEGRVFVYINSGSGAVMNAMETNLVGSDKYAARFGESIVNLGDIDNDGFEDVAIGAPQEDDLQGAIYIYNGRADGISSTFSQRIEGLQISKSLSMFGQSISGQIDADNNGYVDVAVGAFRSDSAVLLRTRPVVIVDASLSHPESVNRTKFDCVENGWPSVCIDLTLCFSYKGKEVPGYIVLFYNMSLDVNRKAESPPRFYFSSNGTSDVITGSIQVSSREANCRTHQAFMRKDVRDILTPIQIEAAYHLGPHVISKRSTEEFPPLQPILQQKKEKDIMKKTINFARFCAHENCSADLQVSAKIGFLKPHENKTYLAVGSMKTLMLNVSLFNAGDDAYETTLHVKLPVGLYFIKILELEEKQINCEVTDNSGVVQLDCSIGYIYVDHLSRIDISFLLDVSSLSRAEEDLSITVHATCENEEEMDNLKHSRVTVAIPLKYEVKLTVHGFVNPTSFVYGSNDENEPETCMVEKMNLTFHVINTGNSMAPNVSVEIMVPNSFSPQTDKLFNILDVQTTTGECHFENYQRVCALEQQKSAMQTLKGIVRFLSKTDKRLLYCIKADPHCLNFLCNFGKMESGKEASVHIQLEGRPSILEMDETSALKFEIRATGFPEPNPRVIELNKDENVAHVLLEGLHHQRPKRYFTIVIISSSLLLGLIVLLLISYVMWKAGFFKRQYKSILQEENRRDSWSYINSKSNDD
VLA-4, sequence (P05556 21-798): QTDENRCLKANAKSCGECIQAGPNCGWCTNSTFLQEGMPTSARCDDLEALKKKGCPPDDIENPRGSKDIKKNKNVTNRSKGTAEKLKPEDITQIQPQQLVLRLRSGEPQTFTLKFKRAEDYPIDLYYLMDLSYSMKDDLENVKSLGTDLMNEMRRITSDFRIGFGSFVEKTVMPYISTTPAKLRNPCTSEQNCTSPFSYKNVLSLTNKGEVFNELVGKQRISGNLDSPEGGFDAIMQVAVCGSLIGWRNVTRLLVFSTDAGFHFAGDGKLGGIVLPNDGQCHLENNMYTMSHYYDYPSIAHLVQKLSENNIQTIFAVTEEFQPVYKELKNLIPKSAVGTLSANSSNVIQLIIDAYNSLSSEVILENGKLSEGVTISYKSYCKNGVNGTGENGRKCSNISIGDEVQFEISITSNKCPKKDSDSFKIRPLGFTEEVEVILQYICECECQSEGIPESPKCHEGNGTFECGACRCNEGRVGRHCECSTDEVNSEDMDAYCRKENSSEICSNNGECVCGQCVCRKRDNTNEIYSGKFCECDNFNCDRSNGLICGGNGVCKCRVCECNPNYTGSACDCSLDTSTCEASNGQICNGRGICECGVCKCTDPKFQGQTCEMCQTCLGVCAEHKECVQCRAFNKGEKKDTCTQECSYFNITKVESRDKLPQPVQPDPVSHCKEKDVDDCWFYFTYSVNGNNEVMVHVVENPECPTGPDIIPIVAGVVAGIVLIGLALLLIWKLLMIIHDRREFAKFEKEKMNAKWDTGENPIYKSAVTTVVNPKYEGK

In the case of `CC(=O)N[C@H]1CSSC[C@@H](C(=O)N2CCC[C@@H]2C(N)=O)NC(=O)[C@H](CC(=O)O)NC(=O)[C@H](CC(C)C)NC1=O` (Ac-CLDC[dP]-NH2; disulfide 1-4), the “Relative Potency” value under setting [1] came to 0.

Consider `CC(C)C[C@@H]1NC(=O)[C@H](Cc2ccccc2)NC(=O)[C@H](CCC(=O)O)NC(=O)[C@@H]2CCCN2C(=O)CNC(=O)[C@@H](N)CSSC[C@@H](C(N)=O)NC(=O)[C@@H]2CCCN2C(=O)[C@H](Cc2ccccc2)NC(=O)[C@H](CC(=O)O)NC1=O` (H-CGPEFLDFPC-NH2; disulfide 1-10), for which the “Relative Potency” value under setting [1] amounted to 6.26.

Regarding `NC(=O)[C@@H]1CSSC[C@H](NC(=O)[C@H](N)Cc2ccccc2)C(=O)N[C@@H](CC(=O)O)C(=O)N[C@@H](Cc2ccccc2)C(=O)N1` (H-[dF]CDFC-NH2; disulfide 2-5), the “Relative Potency” value under setting [1] was determined as 3.13.

`CC1(C)SSC[C@H](C(N)=O)NC(=O)[C@H](Cc2ccccc2)NC(=O)[C@H](CC(=O)O)NC(=O)[C@H]1NC(=O)Cc1ccccc1` [.phi.AcJDFc-NH2] (PhAc-[Pen]DF[dC]-NH2; disulfide 1-4): the “Relative Potency” value under setting [2] was 4.

For `CC(=O)N[C@@H](CC(C)C)C(=O)N[C@@H](CC(=O)O)C(=O)N[C@@H](Cc1ccccc1)C(N)=O` [AcLDF-NH2] (Ac-Leu-Asp-Phe-NH2), the “Relative Potency” value under setting [2] is under 1.

Consider `CC(=O)N[C@@H](CC(C)C)C(=O)N[C@@H](CC(=O)O)C(=O)N[C@H](C(N)=O)C(C)C` [AcLDV-NH2, reference compound] (Ac-Leu-Asp-Val-NH2), for which the “Potency in inhibiting Jurkat cell binding to CS-1 relative to standard 10-mer of SEQ ID NO:6” value is listed as “about 1”. Besides, under setting [2], the “Relative Potency” value was under 1.

`CC(C)C[C@H](N)C(=O)N[C@@H](CC(=O)O)C(=O)N[C@@H](Cc1ccccc1)C(N)=O` [LDF-NH2] (H-Leu-Asp-Phe-NH2): the “Relative Potency” value under setting [2] is listed as 0.

Regarding `CC(C)C[C@H](N)C(=O)N[C@@H](CC(=O)O)C(=O)N[C@H](C(N)=O)C(C)C` [LDV-NH2, reference compound] (H-Leu-Asp-Val-NH2), the “Potency in inhibiting Jurkat cell binding to CS-1 relative to standard 10-mer of SEQ ID NO:6” value is “zero”. The “Relative Potency” value under setting [2] was 0.

As usually defined, the pIC50 is −log10 of the IC50, conventionally taken in molar units. Consider `CC(C)C[C@@H]1NC(=O)[C@H](Cc2ccccc2)NC(=O)[C@@H](N)CSSC[C@@H](C(N)=O)NC(=O)[C@@H]2CCCN2C(=O)[C@H](Cc2ccccc2)NC(=O)[C@H](CC(=O)O)NC1=O` [SEQ ID NO:10, CFLDFPC-N2] (H-CFLDFPC-NH2; disulfide 1-7), for which the “inhibition of binding to CS-1 (in words)” value is listed as “excellent inhibitors” and the “Potency in inhibiting Jurkat cell binding to CS-1 relative to standard 10-mer of SEQ ID NO:6” value is “about 253”. The pIC50 (Jurkat cells, solid phase-bound CS-1, read-out: absolute value of IC50) was about 6.22. Under setting [2], the “Relative Potency” value worked out at 253.

Turning to `CC(=O)N[C@H]1CSSC[C@@H](C(N)=O)NC(=O)[C@@H]2CCCN2C(=O)[C@H](Cc2ccccc2)NC(=O)[C@H](CC(=O)O)NC(=O)[C@H](CC(C)C)NC(=O)[C@H](Cc2ccccc2)NC1=O` [SEQ ID NO:11, AcCFLDFPC-NH2] (Ac-CFLDFPC-NH2; disulfide 1-7), under setting [2], the “Relative Potency” value came to 134.

Turning to `NC(=O)[C@@H]1CSSC[C@H](NC(=O)[C@@H](N)Cc2ccccc2)C(=O)N[C@@H](CC(=O)O)C(=O)N[C@@H](Cc2ccccc2)C(=O)N2CCC[C@H]2C(=O)N1` [SEQ ID NO:12, FCDFPC-NH2] (H-FCDFPC-NH2; disulfide 2-6), the “Relative Potency” value under setting [2] amounted to 131.

Regarding `CC1(C)SSC[C@@H](C(N)=O)NC(=O)[C@H](Cc2ccccc2)NC(=O)[C@H](CC(=O)O)NC(=O)[C@H]1NC(=O)Cc1ccccc1` [SEQ ID NO:14, .phi.AcJDFC-NH2] (PhAc-[Pen]DFC-NH2; disulfide 1-4), the “Relative Potency” value under setting [2] stood at 94.

As for `CC(C)C[C@@H]1NC(=O)[C@H](Cc2ccccc2)NC(=O)[C@@H](N)CSSC[C@@H](C(N)=O)NC(=O)[C@H]([C@@H](C)O)NC(=O)[C@H](CO)NC(=O)[C@@H]2CCCN2C(=O)[C@H](Cc2ccccc2)NC(=O)[C@H](CC(=O)O)NC1=O` [SEQ ID NO:15, CFLDFPSTC-NH2] (H-CFLDFPSTC-NH2; disulfide 1-9), the “Relative Potency” value under setting [2] worked out at 81.

In the case of `CC(C)C[C@@H]1NC(=O)[C@H](Cc2ccccc2)NC(=O)[C@H](CCC(=O)O)NC(=O)[C@@H]2CCCN2C(=O)[C@@H](N)CSSC[C@@H](C(N)=O)NC(=O)[C@@H]2CCCN2C(=O)[C@H](Cc2ccccc2)NC(=O)[C@H](CC(=O)O)NC1=O` [SEQ ID NO:16, CPEFLDFPC-NH2] (H-CPEFLDFPC-NH2; disulfide 1-9), the “Relative Potency” value under setting [2] was found to be 56.

For `CC(=O)N[C@@H](Cc1ccccc1)C(=O)N[C@H]1CSSC[C@@H](C(N)=O)NC(=O)[C@H](Cc2ccccc2)NC(=O)[C@H](CC(=O)O)NC1=O` [SEQ ID NO:17, AcFCDFC-NH2] (Ac-FCDFC-NH2; disulfide 2-5), under setting [2], the “Relative Potency” value was found to be 52.

As for `CC(=O)N[C@@H](Cc1ccccc1)C(=O)N[C@@H](CS)C(=O)N[C@@H](CC(=O)O)C(=O)N[C@@H](Cc1ccccc1)C(=O)N[C@@H](CS)C(N)=O` [SEQ ID NO:18, AcFCDFC-NH2] (Ac-FCDFC-NH2), under setting [2], the “Relative Potency” value was found to be 41.

With `CC(C)C[C@@H]1NC(=O)[C@H](Cc2ccccc2)NC(=O)[C@H](CCC(=O)O)NC(=O)[C@@H]2CCCN2C(=O)[C@@H](N)CSSC[C@@H](C(N)=O)NC(=O)[C@H](CO)NC(=O)[C@@H]2CCCN2C(=O)[C@H](Cc2ccccc2)NC(=O)[C@H](CC(=O)O)NC1=O` [SEQ ID NO:19, CPEFLDFPSC-NH2] (H-CPEFLDFPSC-NH2; disulfide 1-10), the “Relative Potency” value under setting [2] is 6.

In the case of `CC(C)C[C@@H]1NC(=O)[C@H](Cc2ccccc2)NC(=O)[C@H](CCC(=O)O)NC(=O)[C@@H](N)CSSC[C@@H](C(N)=O)NC(=O)[C@@H]2CCCN2C(=O)[C@H](Cc2ccccc2)NC(=O)[C@H](CC(=O)O)NC1=O` [SEQ ID NO:20, CEFLDFPC-NH2] (H-CEFLDFPC-NH2; disulfide 1-8), the “Relative Potency” value under setting [2] is 19.

Regarding `CC(C)C[C@@H]1NC(=O)[C@H](Cc2ccccc2)NC(=O)[C@@H](N)CSSC[C@@H](C(N)=O)NC(=O)[C@H](C(C)C)NC(=O)[C@H]([C@@H](C)O)NC(=O)[C@H](CO)NC(=O)[C@@H]2CCCN2C(=O)[C@H](Cc2ccccc2)NC(=O)[C@H](CC(=O)O)NC1=O` [SEQ ID NO:21, CFLDFPSTVC-NH2] (H-CFLDFPSTVC-NH2; disulfide 1-10), the “Relative Potency” value under setting [2] was 19.

With `CC(C)C[C@@H]1NC(=O)[C@H](Cc2ccccc2)NC(=O)[C@H](CCC(=O)O)NC(=O)[C@@H](N)CSSC[C@@H](C(N)=O)NC(=O)[C@H]([C@@H](C)O)NC(=O)[C@H](CO)NC(=O)[C@@H]2CCCN2C(=O)[C@H](Cc2ccccc2)NC(=O)[C@H](CC(=O)O)NC1=O` [SEQ ID NO:22, CEFLDFPSTC-NH2] (H-CEFLDFPSTC-NH2; disulfide 1-10), under setting [2], the “Relative Potency” value amounted to 9.

As for `CC(C)C[C@@H]1NC(=O)[C@H](Cc2ccccc2)NC(=O)[C@H](CCC(=O)O)NC(=O)[C@@H]2CCCN2C(=O)CNC(=O)[C@@H](N)CSSC[C@@H](C(N)=O)NC(=O)[C@H](Cc2ccccc2)NC(=O)[C@H](CC(=O)O)NC1=O` [SEQ ID NO:23, CGPEFLDFC-NH2] (H-CGPEFLDFC-NH2; disulfide 1-9), the “Relative Potency” value under setting [2] amounted to 9.

As for `CC(C)C[C@@H]1NC(=O)[C@H](Cc2ccccc2)NC(=O)[C@H](CCC(=O)O)NC(=O)[C@@H](N)CSSC[C@@H](C(N)=O)NC(=O)[C@H](CO)NC(=O)[C@@H]2CCCN2C(=O)[C@H](Cc2ccccc2)NC(=O)[C@H](CC(=O)O)NC1=O` [SEQ ID NO:24, CEFLDFPSC-NH2] (H-CEFLDFPSC-NH2; disulfide 1-9), the “Relative Potency” value under setting [2] was 6.

`NC(=O)[C@@H]1CSSC[C@H](NC(=O)[C@@H](N)Cc2ccccc2)C(=O)N[C@@H](CC(=O)O)C(=O)N[C@@H](Cc2ccccc2)C(=O)N1` [SEQ ID NO:25, FCDFC-NH2] (H-FCDFC-NH2; disulfide 2-5): the “Relative Potency” value under setting [2] was 3.
